Data from ChEMBL document CHEMBL5303304, “EUbOPEN Chemogenomics Library - IncuCyte” (2023).

Key:
Format in all cases: toxicity, cell-based
HEK-293T = assay: Incucyte cell viability with HEK293T; conditions: human, 10 µM, compound concentration 10 uM
Fibroblast = assay: Incucyte cell viability with human fibroblast; conditions: 10 µM, compound concentration 10 uM
U2OS = assay: Incucyte cell viability with U2OS; conditions: human, 10 µM, compound concentration 10 uM
Also: unitless GR value; below 1 slowed growth and below 0 cell loss.

SMILES	Growth Rate (HEK-293T; 0 h, replicate number 2)	Growth Rate (HEK-293T; 6 h, replicate number 2)	Growth Rate (HEK-293T; 12 h, replicate number 1)	Growth Rate (HEK-293T; 12 h, replicate number 2)	Growth Rate (HEK-293T; 18 h, replicate number 1)	Growth Rate (HEK-293T; 18 h, replicate number 2)	Growth Rate (HEK-293T; 24 h, replicate number 1)	Growth Rate (HEK-293T; 24 h, replicate number 2)	Growth Rate (Fibroblast; 0 h, replicate number 1)	Growth Rate (Fibroblast; 12 h, replicate number 2)	Growth Rate (Fibroblast; 18 h, replicate number 2)	Growth Rate (Fibroblast; 24 h, replicate number 2)	Growth Rate (U2OS; 6 h, replicate number 1)	Growth Rate (U2OS; 12 h, replicate number 2)	Growth Rate (U2OS; 18 h, replicate number 2)	Growth Rate (U2OS; 24 h, replicate number 2)	Growth Rate (Fibroblast; 0 h, replicate number 2)	Growth Rate (Fibroblast; 12 h, replicate number 1)	Growth Rate (U2OS; 6 h, replicate number 2)	Growth Rate (HEK-293T; 6 h, replicate number 1)	also measured
Cn1ncnc1COc1nn2c(-c3cc(F)ccc3F)nnc2cc1C(C)(C)C	0.38	0.37	0.42	0.63	0.42	0.77	0.28	0.88	0.93	0.29	0.56	0.57	0.51	0.78	0.76	0.76	–	–	–	–	–
O=C(N[C@@H]1C2CCN(CC2)[C@H]1Cc1cccnc1)c1cc2ccccc2o1 [BRADANICLINE]	0.79	–	–	–	–	0.96	0.96	–	–	–	–	–	–	0.78	0.99	0.96	-0.99	-0.73	0.66	–	Growth Rate (HEK-293T; 0 h, replicate number 1): 0.69; Growth Rate (Fibroblast; 18 h, replicate number 1): 0.35; Growth Rate (Fibroblast; 24 h, replicate number 1): 0.82; Growth Rate (U2OS; 24 h, replicate number 1): 0.93
COc1ccc(CC[C@@H](OC(=O)[C@@H]2CCCCN2C(=O)[C@H](c2cc(OC)c(OC)c(OC)c2)C2CCCCC2)c2cccc(OCCN3CCOCC3)c2)cc1OC	-0.44	–	–	0.38	0.94	0.26	0.27	0.24	-1	0.99	–	–	–	0.8	0.78	0.73	–	–	0.91	–	Growth Rate (Fibroblast; 24 h, replicate number 1): 0.97; Growth Rate (U2OS; 0 h, replicate number 1): -1; Growth Rate (U2OS; 0 h, replicate number 2): -0.99
C=CC(=O)Nc1cccc(C(=O)Nc2ccc(NC(=O)c3cccc(-c4ccn[nH]4)n3)cc2)c1	0.5	0.82	–	0.37	0.81	0.59	–	0.55	0	–	–	–	–	–	–	0.92	–	–	–	0.54	Growth Rate (Fibroblast; 6 h, replicate number 1): -0.7; Growth Rate (U2OS; 0 h, replicate number 1): -0.99; Growth Rate (U2OS; 0 h, replicate number 2): -0.56
O=C(NC[C@@H]1[C@H]2CN(C(=O)OCc3cc(C(F)(F)F)cc(C(F)(F)F)c3)C[C@@H]12)c1ccc2[nH]nnc2c1 [BI 2545]	–	-0.7	0.5	0.56	0.6	0.94	0.76	0.91	–	0.94	–	–	0.88	-0.13	0.23	0.42	-0.7	–	-0.56	-0.09	Growth Rate (Fibroblast; 6 h, replicate number 1): 0.33; Growth Rate (Fibroblast; 6 h, replicate number 2): -0.08; Growth Rate (U2OS; 0 h, replicate number 2): -0.98
CN[C@@H](C)C(=O)N[C@H](C(=O)N1CCC[C@H]1C(=O)N[C@H]1c2ccccc2C[C@H]1OCC#CC#CCO[C@@H]1Cc2ccccc2[C@@H]1NC(=O)[C@@H]1CCCN1C(=O)[C@@H](NC(=O)[C@H](C)NC)C1CCCCC1)C1CCCCC1	-0.94	0.46	-0.41	-0.22	-0.17	0.01	-0.12	0.02	–	–	0.57	0.43	0.89	0.86	0.86	–	–	0.87	0.83	0.13	Growth Rate (Fibroblast; 18 h, replicate number 1): 0.75; Growth Rate (Fibroblast; 24 h, replicate number 1): 0.63; Growth Rate (U2OS; 0 h, replicate number 1): 0.76; Growth Rate (U2OS; 18 h, replicate number 1): 0.87; Growth Rate (U2OS; 24 h, replicate number 1): 0.89
CC(C1CC2CCC1C2)n1c(S)nnc1-c1ccco1 (stereo unspecified)	0.53	0.46	0.81	0.63	0.69	0.74	0.75	0.81	–	–	–	–	0.78	0.67	0.78	0.89	–	-1	0.22	0.59	Growth Rate (Fibroblast; 18 h, replicate number 1): -0.08; Growth Rate (U2OS; 12 h, replicate number 1): 0.97
NC(=O)c1cc(-c2ccnc(NC3CCCCC3)c2)nc(N2CCNCC2)c1	-0.65	–	0.54	0.31	0.8	0.26	–	0.44	-0.81	0.39	0.65	0.36	–	–	0.9	0.72	0.79	-1	–	–	Growth Rate (HEK-293T; 0 h, replicate number 1): -0.55; Growth Rate (Fibroblast; 6 h, replicate number 1): 0.63; Growth Rate (Fibroblast; 6 h, replicate number 2): -0.77; Growth Rate (U2OS; 18 h, replicate number 1): 0.84; Growth Rate (U2OS; 24 h, replicate number 1): 0.61
